Assays:
A2780 = experiment: cells; conditions: Homo sapiens, A2780, 72 h
[1] = Metabolic stability in human liver microsomes assessed as compound remaining at 1 uM after 30 mins LC-MS analysis; type: ADME, Microsome; conditions: liver microsomes, read-out: Stability
[2] = Metabolic stability in mouse liver microsomes assessed as compound remaining at 1 uM after 30 mins LC-MS analysis; type: ADME, Microsome; conditions: liver microsomes, read-out: Stability
[3] = target: Nicotinamide phosphoribosyltransferase (Homo sapiens, UniProt P43490)
[4] = Intrinsic clearance in CD-1 mouse hepatocytes at 1 uM after 10 mins by LC-MS/MS analysis; type: ADME, cell-based, Hepatocyte; conditions: read-out: CLH
in vitro = conditions: dog, MDCK
[5] = Intrinsic clearance in human hepatocytes at 1 uM after 10 mins by LC-MS/MS analysis; type: ADME, cell-based, Hepatocyte; conditions: read-out: CLH
[6] = Fraction unbound in human plasma at 5 uM after 4 hrs by LC-MS/MS analysis; type: ADME, cell-free
[7] = Fraction unbound in mouse plasma at 5 uM after 4 hrs by LC-MS/MS analysis; type: ADME, cell-free

Sequence of Nicotinamide phosphoribosyltransferase (P43490 whole entry): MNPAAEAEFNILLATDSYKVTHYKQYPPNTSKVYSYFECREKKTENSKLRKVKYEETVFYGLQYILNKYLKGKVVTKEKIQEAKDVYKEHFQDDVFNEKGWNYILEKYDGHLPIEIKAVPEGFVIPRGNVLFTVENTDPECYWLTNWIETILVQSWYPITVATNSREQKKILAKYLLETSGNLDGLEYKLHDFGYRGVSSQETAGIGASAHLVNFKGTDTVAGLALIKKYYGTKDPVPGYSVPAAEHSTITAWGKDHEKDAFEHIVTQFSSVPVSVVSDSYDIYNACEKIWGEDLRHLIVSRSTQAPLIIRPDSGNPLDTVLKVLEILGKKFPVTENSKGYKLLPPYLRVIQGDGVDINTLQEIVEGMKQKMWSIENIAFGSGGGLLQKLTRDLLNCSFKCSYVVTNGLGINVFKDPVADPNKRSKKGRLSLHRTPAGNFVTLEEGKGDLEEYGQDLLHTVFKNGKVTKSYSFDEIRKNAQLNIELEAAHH

CLint scaled at 1 µM [4] [mL/min/kg] | CLint scaled at 1 µM [5] [mL/min/kg] | SMILES | IC50 (A2780) [nM] | remaining at 0.5 h, 1 µM [1] [%] | remaining at 0.5 h, 1 µM [2] [%] | IC50 [3] [nM] | Papp A→B at 10 µM (in vitro) [×10⁻⁶ cm/s] | fraction unbound at 4 h, 5 µM [6] | fraction unbound at 4 h, 5 µM [7]
 |  | O=C(NCc1ccc(S(=O)(=O)N2CCCCC2)cc1)c1cnc2nccn2c1 | 130 | 64 | 0.28 | 3 |  |  | 
 |  | O=C(NCc1ccc(S(=O)(=O)c2ccccc2)cc1)c1ccc2nccn2c1 | 13 | 77 | 18 | 18 |  |  | 
 |  | O=C(NCc1ccc(S(=O)(=O)c2ccccc2)cc1)c1cc2ncccc2s1 | > 10000 | 81 | 1.6 | 400 |  |  | 
 |  | O=C(NCc1ccc(S(=O)(=O)c2cccc(C(F)(F)F)c2)cc1)c1ccc2nccn2c1 | 2 | 26 | 17 | 8 |  |  | 
 |  | O=C(NCc1ccc(S(=O)(=O)c2ccc(C(F)(F)F)cc2)cc1)c1cc2cnccc2[nH]1 | 26 | 82 | 87 | 16 |  |  | 
 |  | Cc1ccccc1S(=O)(=O)c1ccc(CNC(=O)c2cc3cnccc3[nH]2)cc1 | 13 | 48 | 15 | 12 |  |  | 
 |  | O=C(NCc1ccc(S(=O)(=O)N2CCCCC2)cc1)c1ccc2nccn2c1 | 6 | 57 | 0.28 | 28 |  |  | 
 |  | O=C(NCc1ccc(S(=O)(=O)c2ccccc2C(F)(F)F)cc1)c1cc2cnccc2[nH]1 | 25 | 52 | 41 | 24 |  |  | 
 |  | O=C(NCc1ccc(S(=O)(=O)c2ccccc2)cc1)c1ccc2ncncc2c1 | > 10000 | 24 | 3.7 | 1900 |  |  | 
70 | 7 | O=C(NCc1ccc(S(=O)(=O)c2cc(F)cc(F)c2)cc1)c1cc2cnccc2[nH]1 |  | 82 | 63 |  | 12 |  | 
 |  | O=C(NCc1ccc(S(=O)(=O)N2CCCCC2)cc1)c1ccc2nc[nH]c2c1 | > 10000 | 53 | 16 | 310 |  |  | 
 |  | O=C(NCc1ccc(S(=O)(=O)c2ccccc2)cc1)c1ccc2ccncc2c1 | > 10000 | 46 | 3.3 | 610 |  |  | 
 |  | O=C(NCc1ccc(S(=O)(=O)c2ccccc2)cc1)c1cc(-c2cccnc2)[nH]n1 | > 10000 | 67 | 42 | 43 |  |  | 
 |  | O=C(NCc1ccc(S(=O)(=O)c2ccccc2)cc1)c1nc2ccncc2s1 | > 10000 | 68 | 26 | 210 |  |  | 
 |  | O=C(NCc1ccc(S(=O)(=O)c2ccccc2)cc1)c1nc2cnccc2[nH]1 | 5400 | 73 | 7.3 |  |  |  | 
 |  | O=C(NCc1ccc(S(=O)(=O)c2cc(F)cc(F)c2)cc1)c1cc2ccncc2o1 |  | 77 | 12 |  |  |  | 
 |  | O=C(NCCc1ccc(S(=O)(=O)c2ccccc2)cc1)c1cc2cnccc2[nH]1 | 9100 | 64 | 31 | 970 |  |  | 
 |  | O=C(NCc1ccc(S(=O)(=O)c2cccc(C(F)(F)F)c2)cc1)c1cnc2nccn2c1 | 2 | 41 | 27 | 1 |  |  | 
 |  | CC(NC(=O)c1cc2cnccc2[nH]1)c1ccc(S(=O)(=O)N2CCCCC2)cc1 (stereo not given) | > 10000 | 34 | 0.65 | > 10000 |  |  | 
 |  | O=C(NCc1ccc(S(=O)(=O)N2CCCCC2)cc1)c1cc2cnccc2[nH]1 | 10 | 44 | 1.9 |  |  |  | 
 |  | Cc1cccc(S(=O)(=O)c2ccc(CNC(=O)c3cc4cnccc4[nH]3)cc2)c1 | 4 | 49 | 32 | 8 |  |  | 
67 | 15 | O=C(/C=C/c1cccnc1)NCCCCC1CCN(C(=O)c2ccccc2)CC1 [DAPORINAD] |  | 46.7 | 7.7 |  | 15 | 0.007 | 0.033
 |  | O=C(NCc1ccc(S(=O)(=O)N2CCCCC2)cc1)c1cc2ccncc2o1 | 29 | 56 | 0.14 |  |  |  | 

CLint scaled at 1 µM [4] [mL/min/kg] | CLint scaled at 1 µM [5] [mL/min/kg] | SMILES | IC50 (A2780) [nM] | remaining at 0.5 h, 1 µM [1] [%] | remaining at 0.5 h, 1 µM [2] [%] | IC50 [3] [nM] | Papp A→B at 10 µM (in vitro) [×10⁻⁶ cm/s] | fraction unbound at 4 h, 5 µM [6] | fraction unbound at 4 h, 5 µM [7]
 |  | O=C(NCc1ccc(S(=O)(=O)c2ccccc2)cc1)c1ccc2nncn2c1 | > 10000 | 96 | 47 | 370 |  |  | 
 |  | O=C(NCc1ccc(S(=O)(=O)c2cccnc2)cc1)c1cc2cnccc2[nH]1 | 48 | 75 | 20 |  |  |  | 
 |  | O=C(NCc1ccc(S(=O)(=O)c2ccccc2)cc1)c1cc2ccncc2s1 | 14 | 48 | 21 | 7 |  |  | 
 |  | O=C(NCc1ccc(S(=O)(=O)c2ccccc2)cc1)c1cc(-c2cccnc2)no1 | > 10000 | 69 | 66 | 41 |  |  | 
 |  | O=C(NCc1ccc(S(=O)(=O)c2ccccc2)cc1)c1ccc2cncn2c1 | > 10000 | 65 | 1.7 | 1500 |  |  | 
78 | 16 | O=C(NCc1ccc(S(=O)(=O)c2cc(F)cc(F)c2)cc1)c1cc2ccncc2s1 |  | 41 | 32 |  |  | 0.009 | 0.011
 |  | O=C(NCc1ccc(S(=O)(=O)c2ccccc2)cc1)c1cc2cnccc2[nH]1 |  | 75 | 54 |  |  |  | 
 |  | Cn1c(C(=O)NCc2ccc(S(=O)(=O)c3ccccc3)cc2)cc2cnccc21 | > 10000 | 78 | 34 |  |  |  | 
 |  | O=C(NCc1ccc(S(=O)(=O)N2CCCCC2)cc1)c1ccn2ccnc2c1 | > 10000 |  |  | 1800 |  |  | 
 |  | O=C(NCc1ccc(S(=O)(=O)c2ccccc2)cc1)c1cnc2nccn2c1 | 68 | 60 | 30 |  |  |  | 
 |  | O=C(NCc1ccc(S(=O)(=O)c2ccccc2)cc1)c1c[nH]c2ccncc12 | 2100 | > 99 | 45 |  |  |  | 
 |  | O=C(NCc1ccc(S(=O)(=O)N2CCCCC2)cc1)c1ccn2cncc2c1 | > 10000 | 54 | 1 | 1700 |  |  | 
 |  | O=C(NCc1ccc(S(=O)(=O)c2cccc(F)c2)cc1)c1cc2cnccc2[nH]1 | 11 | 79 | 44 | 5 |  |  | 
21 | 7 | N#CN=C(NCCCCCCOc1ccc(Cl)cc1)Nc1ccncc1 [CHS-828] |  | 61 | 63 |  | 10 | 0.005 | 0.005
 |  | O=C(NCc1ccc(S(=O)(=O)c2ccc(N3CCOCC3)nc2)cc1)c1cc2ccncc2s1 | 1 | 23 | 23 | 3 |  |  | 
 |  | O=C(NCc1ccc(S(=O)(=O)c2ccc(F)cc2)cc1)c1cc2cnccc2[nH]1 | 16 | 91 | 72 | 17 |  |  | 
 |  | O=C(NCc1ccc(S(=O)(=O)c2ccccc2)cc1)c1ccc2cnccc2c1 | > 10000 | 31 | 10 | > 10000 |  |  | 
 |  | O=C(NCc1ccc(S(=O)(=O)N2CCCCC2)cc1)c1cc2ccncc2s1 | 6 | 4.4 | 0.2 | 11 |  |  | 
 |  | O=C(NCc1ccc(S(=O)(=O)c2ccc(F)c(F)c2)cc1)c1cc2cnccc2[nH]1 | 14 | 100 | 58 | 10 |  |  | 
 |  | O=C(NCc1ccc(S(=O)(=O)c2ccccc2)cc1)c1cc2ccncc2o1 |  | 86 | 30 |  |  |  | 
 |  | O=C(NCc1ccc(S(=O)(=O)c2ccccc2)cc1)c1cn2ccnc2cn1 | > 10000 | 87 | 13 | 150 |  |  | 
 |  | O=C(NCc1ccc(S(=O)(=O)N2CCCCC2)cc1)c1cc2cnccc2o1 | 1500 | 46 | 4.6 | 140 |  |  | 
 |  | O=C(Nc1ccc(S(=O)(=O)N2CCCCC2)cc1)c1cc2cnccc2[nH]1 | > 10000 |  |  | > 10000 |  |  | 

SMILES | CLint scaled at 1 µM [4] [mL/min/kg] | CLint scaled at 1 µM [5] [mL/min/kg] | IC50 (A2780) [nM] | remaining at 0.5 h, 1 µM [1] [%] | remaining at 0.5 h, 1 µM [2] [%] | IC50 [3] [nM] | Papp A→B at 10 µM (in vitro) [×10⁻⁶ cm/s] | fraction unbound at 4 h, 5 µM [6] | fraction unbound at 4 h, 5 µM [7]
O=C(NCc1ccc(S(=O)(=O)c2cc(F)cc(F)c2)cc1)c1cnc2nccn2c1 | 74 | 6 | 3 | 78 | 71 |  | 5 | 0.122 | 0.133
O=C(NCc1ccc(S(=O)(=O)c2cccc(C(F)(F)F)c2)cc1)c1cc2ccncc2s1 | 73 | 14 | 1 | 43 | 35 |  | 8 | 0.004 | 0.002
O=C(NCc1ccc(S(=O)(=O)c2ccc(N3CCOCC3)nc2)cc1)c1cc2cnccc2[nH]1 | 57 |  | 1 | 75 | 72 | 7 | 1 | 0.011 | 0.015

Reference: ChEMBL document CHEMBL2417368, “Structure-based discovery of novel amide-containing nicotinamide phosphoribosyltransferase (nampt) inhibitors” (J Med Chem, 2013)
